Here are results for three compounds from patent US20240009234A1, “SYNTHETIC OLIGOMERIZATION SYSTEMS FOR CELL ENGINEERING AND THERAPY” (The Board of Trustees of the Leland Stanford Junior …, priority 2020, published 2024).

What all share (conditions): 8-24 hr
Assay [1] has as its system FKBP-TLR5/FRB-TLR5 model receptor system. Nature of the assay: NFκβ activity of FKBP-TLR5/FRB-TLR5 heterodimerization system in Jurkat-NFκβ-GFP reporter cells. It is filed as cell-based, human. Here is the method: (§1) In each of the following examples, standard molecular cloning techniques were performed to assemble nucleic acid sequences encoding components of chimeric transmembrane receptor polypeptides onto plasmid backbones. Plasmids were transfected into HEK293T cells to create lentivirus. Lentivirus was transduced into all cell lines to create receptor engineered cells. Presence of the receptor was determined by a fluorescent reporter. Receptor engineered Jurkat cells or Jurkat-NFκβ-GFP and/or Jurkat-NFAT-GFP reporter cells were treated with activator for 8-24 hr. Receptor activity was measured by antibody staining or GFP expression via flow cytometry.
The receptor was further modified to activate upon heterodimerization (A/B system) by dimerizing two different receptor constructs. FKBP heterodimerizes with FKBP-rapamycin-binding (FRB, protein fragment of human mTOR) with the addition of AP21967 (protein-protein interaction inducing macrocyclic small molecule), and an FKBP-TLR5/FRB-TLR5 model receptor system was engineered and activated with AP21967.

Assay [2] concerns nanobody-fused chimeric transmembrane receptor polypeptide (Nb-TLR5). Nature of the assay: NFκβ activity of Nb-TLR5 receptor-engineered Jurkat-NFκβ-GFP reporter cells. In kind it is cell-based. How it is done: as §1
The receptor ECD was also expanded beyond endogenous proteins to engineered nanobodies that bind to small molecules. For example, FIG. 8 presents results for a nanobody-fused chimeric transmembrane receptor polypeptide (Nb-TLR5) engineered and activated by treatment with the asymmetric monomeric small molecule, caffeine. The graph of FIG. 8 plots NFκβ activity for receptor-engineered Jurkat-NFκβ-GFP reporter cells treated with or without caffeine activator for 8-24 hr.

Assay [3] has as its system truncated FKBP-TLR5 receptors. Nature of the assay: NFκβ activity of Jurkat-NFκβ-GFP reporter cells with truncated FKBP-TLR5 receptor constructs. In kind it is cell-based, human. How it is done:
as §1
To determine where to truncate the TLR5 ECD such that the binding domain could be redirected to expand the soluble factor repertoire, the ECD was also methodically truncated at specific locations prior to fusing to FKBP. […] The graph of FIG. 3 plots the Nκβ activity for Jurkat-NFKκβ-GFP reporter cells engineered with or without truncated receptor constructs and treated with AP20187 activator for 8-24 hr. The graph of FIG. 4 plots the NFκβ activity for Jurkat-NFκβ-GFP reporter cells engineered with or without truncated receptor constructs and treated with Flagellin activator for 8-24 hr. […]

Chain of truncated FKBP-TLR5 receptors (P62942 2-108 F37V limits assumed): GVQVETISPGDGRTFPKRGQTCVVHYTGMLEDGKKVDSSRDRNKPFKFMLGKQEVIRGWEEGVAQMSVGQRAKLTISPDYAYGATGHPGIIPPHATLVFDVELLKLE

As to `CO[C@H]1[C@@H](O)[C@H](C)C[C@H](C)/C=C/C=C/C=C(\C)[C@@H](c2c[nH]c3c(C)cccc23)C[C@@H]2CC[C@@H](C)[C@@](O)(O2)C(=O)C(=O)N2CCCC[C@H]2C(=O)O[C@H]([C@H](C)C[C@@H]2CC[C@@H](O)[C@H](OC)C2)C[C@H](O)[C@H](C)/C=C(\C)[C@H]1O` [AP21967], the “NFκβ activity (FIG. 7)” value in assay [1] is listed as “intramembrane signal pathway activation”.

For `Cn1c(=O)c2c(ncn2C)n(C)c1=O` [caffeine], the “NFκβ activity (FIG. 8)” value in assay [2] is listed as “activated”.

For flagellin, the “receptor activation, NFκβ activity (FIGS. 3-5)” value in assay [3] is recorded as “not”.
